Test results taken from US20110172217A1, “RING-FUSED MORPHOLINE DERIVATIVE HAVING PI3K-INHIBITING ACTIVITY” (Shionogi & Co., Ltd., priority 2008, published 2011).

Experiments:
[1] = test system: Salmonella typhimurium TA98 line, TA100 line; assay: Fat Test (mutagenicity in Salmonella typhimurium); assay type: cell-based; set-up: key: When the mutagenicity is negative, the compound is shown as (−); When positive, the compound is shown as (+); conditions: TA98 and TA100 lines, non-metabolism-activation and metabolism-activation conditions
Experimental: 20 μL of Salmonella enterica subsp. typhimurium (Salmonella typhimurium TA98 line, TA100 line) cryopreserved was inoculated to 10 mL of liquid nutrient medium (2.5% Oxoid nutrient broth No. 2) and then precultured at 37° C. for 10 hours with shaking. Regarding TA98 line, after 9 mL of a bacterial suspension was centrifuged (2000×g, 10 minutes) to remove the culture solution, the bacteria was suspended in 9 mL of Micro F buffer solution (K2HPO4: 3.5 g/L, KH2PO4: 1 g/L, (NH4)2SO4: 1 g/L, tri-sodium citric acid dihydrate: 0.25 g/L, MgSO4.7H2O: 0.1 g/L), and then added to 110 mL of Exposure media (Micro F buffer solution containing biotin: 8 μg/mL, histidine: 0.2 μg/mL, glucose: 8 mg/mL). Regarding TA 100 line, 120 mL of Exposure media was added to 3.16 mL of the bacterial suspension to prepare a test bacterial suspension. 12 μL of a solution of a test substance in DMSO (diluted eight times in a common ratio of 2 from the maximum dose of 50 mg/mL); 12 μL of DMSO as a negative control; 50 μg/mL 4-nitroquinoline-1-oxide solution in DMSO for TA98 line or 0.25 μg/mL 2-(2-furyl)-3-(5-nitro-2-furyl)acrylamide solution in DMSO as a positive control for TA 100 line in the case of a non-metabolism-activation condition; 12 μL of 40 μg/mL 2-aminoanthracene solution in DMSO for TA98 line or 20 μg/mL of 2-aminoanthracene solution in DMSO for TA100 line in the case of a metabolism-activation condition; were each mixed with 588 μL of the test bacterial suspension (in the case of a metabolism activation condition, a mixed solution of 498 μL of the test bacterial suspension and 90 μL S9 mix) and then cultured at 37° C. at 90 minutes with shaking. 460 μL of the bacterial suspension to which a test substance was exposed was mixed with 2300 μL of Indicator media (a Micro F buffer solution containing 8 μg/mL biotin, 0.2 μg/mL histidine, 8 mg/mL glucose, and 37.5 μg/mL bromocresol purple). […] Thus, in 48 wells per dose, the number of the bacteria-proliferation wells in which the color changed to yellow was counted, compared with a group of negative controls, and then evaluated. […]

[2] = biological target: T1, CYP2D6 (Homo sapiens, UniProt P10635); assay: CYP inhibition test, O-demethylation of dextromethorphan; assay type: in vitro ADME; conditions: pooled human liver microsome; one of 5 kinds
T1 construct: enzyme: pooled human liver microsome 0.2 mg protein/mL; from tissue; host or cells: pooled human liver microsomes
Text: (§1) O-de-ethylation of 7-ethoxyresorufin (CYP1A2), methyl-hydroxylation of tolbutamide (CYP2C9), 4′-hydroxylation of mephenyloin (CYP2C19), O-demethylation of dextromethorphan (CYP2D6), and hydroxylation of terfenadine (CYP3A4), which are typical substrate for metabolic reactions of human main CYP5 molecular species (CYP1A2, 2C9, 2C19, 2D6, and 3A4), were adopted as indexes.
(§2) The reaction conditions are as follows: substrate: 0.5 μmol/L of ethoxyresorufin (CYP1A2), 100 μmol/L of tolbutamide (CYP2C9), 50 μmol/L of S-mephenyloin (CYP2C19), […] of dextromethorphan (CYP2D6), and 1 μmol/L of terfenadine (CYP3A4); reaction time; 15 minutes; reaction temperature: 37° C.; enzyme: pooled human liver microsome 0.2 mg protein/mL; test drug concentration: 1, 5, 10, and 20 μmol/L (4 points).
(§3) In a 96-well plate, as a reaction solution, five kinds of substrates, a human liver microsome, and a test drug were added to 50 mmol/L Hepes buffer solution in the aforementioned ratio. A coenzyme NADPH was added to start a metabolic reaction, which is an index. After reacting at 37° C. for 15 minutes, a solution of methanol/acetonitrile (1/1 (v/v)) was added to quench the reaction. After centrifugation at 3000 rpm for 15 minutes, resorufin (CYP1A2 metabolite) in the supernatant was quantitated with a fluorescence multilabel counter, and hydroxylated tolbutamide (CYP2C9 metabolite), 4′-hydroxylated mephenyloin (CYP2C19 metabolite), […], terfenadine in alcohol form (CYP3A4 metabolite) were quantitated with LC/MS/MS.
(§4) The case wherein only DMSO (a solvent which dissolved a drug) was added to a reaction system was defined as a control (100%). When a test drug solution was added, the remaining activity (%) at each concentration was calculated, and then IC50 was calculated with a concentration and an inhibition ratio by an inverse estimation using a logistic model.

[3] = biological target: T2, CYP1A2 (Homo sapiens, UniProt P05177); assay: CYP inhibition test, O-de-ethylation of 7-ethoxyresorufin; assay type: in vitro ADME; conditions: pooled human liver microsome; one of 5 kinds
T2 construct: enzyme: pooled human liver microsome 0.2 mg protein/mL; from tissue; host or cells: pooled human liver microsomes
T2 sequence (P05177 1-516): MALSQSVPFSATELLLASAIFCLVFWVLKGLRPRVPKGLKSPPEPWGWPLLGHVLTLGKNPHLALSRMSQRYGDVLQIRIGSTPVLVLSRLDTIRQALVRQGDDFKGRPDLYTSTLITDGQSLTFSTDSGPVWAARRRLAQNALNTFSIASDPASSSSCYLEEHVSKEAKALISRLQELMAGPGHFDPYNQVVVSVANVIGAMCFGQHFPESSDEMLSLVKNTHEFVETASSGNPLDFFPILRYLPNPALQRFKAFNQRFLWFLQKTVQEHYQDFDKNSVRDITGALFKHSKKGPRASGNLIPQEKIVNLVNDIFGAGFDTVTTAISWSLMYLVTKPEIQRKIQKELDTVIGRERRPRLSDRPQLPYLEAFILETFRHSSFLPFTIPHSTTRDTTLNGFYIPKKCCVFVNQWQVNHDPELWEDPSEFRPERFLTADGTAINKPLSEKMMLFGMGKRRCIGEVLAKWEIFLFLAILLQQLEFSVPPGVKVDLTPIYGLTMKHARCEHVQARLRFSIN
Text: as §1, §2, §3, §4

[4] = biological target: T3, CYP2C9 (Homo sapiens, UniProt P11712); assay: CYP inhibition test, methyl-hydroxylation of tolbutamide; assay type: in vitro ADME; conditions: pooled human liver microsome; one of 5 kinds
T3 construct: enzyme: pooled human liver microsome 0.2 mg protein/mL; from tissue; host or cells: pooled human liver microsomes
Text: as §1, §2, §3, §4

T3 sequence (P11712 whole entry): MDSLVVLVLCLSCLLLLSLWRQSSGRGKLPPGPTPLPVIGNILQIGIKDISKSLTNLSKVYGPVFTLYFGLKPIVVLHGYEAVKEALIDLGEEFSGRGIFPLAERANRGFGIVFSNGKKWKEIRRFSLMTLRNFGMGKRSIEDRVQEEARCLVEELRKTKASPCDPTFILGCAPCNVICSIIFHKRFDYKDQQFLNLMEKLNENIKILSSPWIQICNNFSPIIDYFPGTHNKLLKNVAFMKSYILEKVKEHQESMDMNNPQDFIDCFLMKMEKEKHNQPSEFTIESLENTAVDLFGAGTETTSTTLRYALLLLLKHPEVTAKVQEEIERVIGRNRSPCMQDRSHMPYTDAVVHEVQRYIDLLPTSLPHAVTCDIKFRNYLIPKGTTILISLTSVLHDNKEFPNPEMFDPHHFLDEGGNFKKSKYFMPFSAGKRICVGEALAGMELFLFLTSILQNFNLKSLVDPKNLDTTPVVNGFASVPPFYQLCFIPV
T1 sequence (P10635 whole entry): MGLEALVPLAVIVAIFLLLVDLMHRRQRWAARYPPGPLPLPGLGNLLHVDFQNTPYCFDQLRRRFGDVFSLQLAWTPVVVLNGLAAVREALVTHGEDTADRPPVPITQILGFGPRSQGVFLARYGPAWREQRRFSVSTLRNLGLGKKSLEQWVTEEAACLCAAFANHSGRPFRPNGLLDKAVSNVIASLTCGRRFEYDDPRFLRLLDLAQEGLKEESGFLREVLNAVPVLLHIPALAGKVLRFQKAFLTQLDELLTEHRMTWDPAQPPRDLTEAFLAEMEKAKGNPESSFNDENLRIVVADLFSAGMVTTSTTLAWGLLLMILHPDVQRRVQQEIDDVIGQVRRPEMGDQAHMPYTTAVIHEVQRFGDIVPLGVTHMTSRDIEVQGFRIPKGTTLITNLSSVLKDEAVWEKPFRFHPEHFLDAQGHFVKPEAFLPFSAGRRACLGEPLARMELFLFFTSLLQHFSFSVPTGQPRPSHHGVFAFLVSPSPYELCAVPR

| IC50 [2] | IC50 [3] | IC50 [4] | SMILES | mutagenicity [1] |
| --- | --- | --- | --- | --- |
|  |  |  | O=C(O)c1ccccc1Nc1ccc2c(n1)N(C(=O)Nc1ccccc1)CCO2 [Compound I-145] | (−) |
| > 20 µM | > 20 µM | > 20 µM | O=C(O)COc1cccc(Nc2ccc3c(n2)N(C(=O)Nc2ccccc2)CCO3)c1 [Compound I-240] |  |
